Results reported in patent US9079906B2, “Triazolopyridazines as PAR1 inhibitors, production thereof, and use as medicaments” (Sanofi, priority 2008, dated 2015).
Where a name gives a salt, the structure may show the parent alone.

How the values were obtained:
PAR1 [1] = biological target: T1, PAR1 (Homo sapiens (Human), UniProt P25116); assay: Inhibition of PAR1-mediated platelet aggregation induced by TRAP; assay type: cell-based; settings: TRAP-induced aggregation of washed platelets from healthy volunteer donors, 96-well format
T1 sequence (P25116 22-425): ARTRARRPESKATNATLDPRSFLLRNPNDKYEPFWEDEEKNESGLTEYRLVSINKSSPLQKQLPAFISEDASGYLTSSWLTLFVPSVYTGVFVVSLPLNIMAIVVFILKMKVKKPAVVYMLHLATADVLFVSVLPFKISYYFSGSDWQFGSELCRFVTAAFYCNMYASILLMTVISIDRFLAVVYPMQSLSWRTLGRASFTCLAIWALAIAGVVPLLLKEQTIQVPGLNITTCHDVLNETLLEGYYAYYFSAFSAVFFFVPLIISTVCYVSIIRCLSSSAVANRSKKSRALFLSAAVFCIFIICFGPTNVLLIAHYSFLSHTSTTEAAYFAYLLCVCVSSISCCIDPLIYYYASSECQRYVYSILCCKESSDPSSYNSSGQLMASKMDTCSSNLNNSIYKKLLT
Description: PAR1 determination method: inhibition of PAR1-mediated platelet aggregation
The pharmacological testing of the substances took place in platelet aggregation induced by TRAP (thrombin receptor-activating peptide) in 96-well format. For this purpose, blood was taken from healthy volunteer donors in 20 ml syringes containing 2 ml of 3.13% sodium citrate solution. After centrifugation at 150×g for 20 minutes, the platelet-rich plasma (PRP) was separated off and mixed with 1 μl of PGE1 solution (500 μg/ml in ethanol)/ml of PRP. Incubation at RT for 5 minutes was followed by centrifugation at 120×g for 15 minutes to remove the leukocytes. The leukocyte-free PRP was transferred in 5 ml portions into 15 ml PP tubes and centrifuged at 360×g for 15 minutes in order to pellet the platelets. The plasma was then decanted off and the platelet sediment from 5 ml of PRP was resuspended in 1 ml of Tyrode's (120 mM NaCl, 2.6 mM KCl, 12 mM NaHCO3, 0.39 mM NaH2PO4×H2O, 10 mM HEPES, 0.35% BSA, 5.5 mM glucose, pH 7.4) and adjusted with Tyrode's to a platelet count of 3×10^5/microliter (μL). 13 ml of this cell suspension were then mixed with 866 μL of 10 mM CaCl2 solution, and 120 μL thereof were pipetted into each well of a 96-well plate containing 15 μL of the substance to be tested. After incubation at room temperature in the dark for 30 minutes, 15 μL of a TRAP solution (70-100 μM) were added as agonist, and kinetics were recorded at 650 nm in a SpectraMax 340 at 37° C. for 20 minutes while shaking. The areas under the curves of negative control (Tyrode's/DMSO) and positive control (15 μl of agonist/DMSO) were calculated and the difference was fixed as the 100% value. The substances to be tested were pipetted as serial dilutions in duplicate determination, the AUC was likewise determined for each substance concentration, and the % inhibition of the AUC compared with the control was calculated. On the basis of the % inhibition, the IC50 was calculated by nonlinear regression analysis according to the 4-parameter equation.

PAR1 [2] = biological target: T1, PAR1; assay: PAR1 binding test (radioligand displacement, membrane preparation); settings: human PAR1 expressed in High Five insect cell membranes; radioligand 20 nM; read-out: Inhibition of binding IC50
Description: The synthesized substances were examined in a PAR1 binding test. This tested whether the substances can inhibit the binding of a radioactively labeled PAR1 agonist known from the literature at the PAR1 receptor (Ho-Sam Ahn, Mol Pharm, 51:350-356, 1997). The human PAR1 receptor was expressed transiently in High Five insect cells. From these cells, after 48 hours, a membrane preparation was produced by standard methods, aliquoted into 10 mM Tris-HCl; 0.3 mM EDTA; 1 mM EGTA; 250 mM sucrose pH 7.5, and stored at −80° C.
The substances were preincubated with the membrane at room temperature for 15 minutes, then the radioligand (ALA-(para-F-Phe)-Arg-ChA-homoArg-(3,4-^3H-Tyr)-NH2; approx. 40 Ci/mMol) was added. The end concentration of the radioligand in the test buffer (50 mM Tris-HCl; 10 mM MgCl2; 1 mM EGTA; 0.1% BSA; 2% DMSO) was 20 nM, that of the membrane 1 mg/ml. After an incubation time of 60 minutes, 25 μL of the mixture were transferred to a 96-well MultiScreenHTS FB microtiter filtration plate (from Millipore), which had been pretreated beforehand with a 0.75% aqueous polyethyleneimine solution for 5 hours at room temperature. Thereafter, with vacuum extraction, each well was washed four times with 300 μL of buffer (50 mM Tris-HCl; 10 mM MgCl2; 1 mM EGTA). The plate was then dried overnight, 100 μl of scintillator per well were added, and the plate was analyzed after 6 hours in a Wallac MicroBeta (from PerkinElmer) liquid scintillation counter. The nonspecific binding was determined in the presence of 100 μM SCH79797 (PAR-1 antagonist; from Tocris, Cat. No. 1592) and subtracted from all measurements. The 100% value used was a control without inhibitor. The % inhibition values of a substance dilution series were used to calculate the IC50 with the aid of nonlinear regression analysis according to the 4-parameter equation.

| Compound | IC50 (PAR1 [1]) [nM] | IC50 (PAR1 [2]) [nM] |
| --- | --- | --- |
| CCN(CC)c1cc(C)c2nn(CC(=O)c3cc(OC)cc(S(F)(F)(F)(F)F)c3)c(=N)n2n1 [Example 108, 2-(6-diethylamino-3-imino-8-methyl-[1,2,4]triazolo[4,3-b]pyridazin-2-yl)-1-[3-methoxy-5-(pentafluorosulfanyl)phenyl]-ethanone trifluoroacetic acid salt] | 16 |  |
| CCOc1ccc2nn(CC(=O)c3cc(N4CCOCC4)c(OC)c(C(F)(F)F)c3)c(=N)n2n1 [Example 5, 2-(6-Ethoxy-3-imino-[1,2,4]triazolo[4,3-b]pyridazin-2-yl)-1-(4-methoxy-3-morpholin-4-yl-5-trifluormethylphenyl)ethanone trifluoroacetic acid salt] | 8500 |  |
| CCC(CC)Oc1cc(C)c2nn(CC(=O)c3cc(COCCCO)cc(C(C)(C)C)c3)c(=N)n2n1 [Example 77, 1-[3-tert-butyl-5-(3-hydroxy-propoxymethyl)phenyl]-2-[6-(1-ethylpropoxy)-3-imino-8-methyl-[1,2,4]triazolo[4,3-b]-pyridazin-2-yl]ethanone hydrochloride] | 9 |  |
| CC(C)(C)c1cc(C(=O)Cn2nc3ccc(Cl)nn3c2=N)cc(C(C)(C)C)c1O [Example 2, 2-(6-chloro-3-imino-[1,2,4]triazolo[4,3-b]pyridazin-2-yl)-1-(3,5-di-tert-butyl-4-hydroxyphenyl)ethanone] | 1600 |  |
| CCC(CC)Oc1ccc2nn(CC(=O)c3cc(NC)cc(S(F)(F)(F)(F)F)c3)c(=N)n2n1 [Example 16, 2-[6-(1-ethylpropoxy)-3-imino-[1,2,4]triazolo[4,3-b]pyridazin-2-yl]-1-[3-methylamino-5-(pentafluorosulfanyl)phenyl]ethanone trifluoroacetic acid salt] | 127 |  |
| CCOc1ccc2nn(CC(=O)c3cc(NC(C)=O)cc(S(F)(F)(F)(F)F)c3)c(=N)n2n1 [Example 1, N-[3-[2-(6-Ethoxy-3-imino-[1,2,4]triazolo[4,3-b]pyridazin-2-yl)acetyl]-5-(pentafluorosulfanyl)phenyl]acetamide as the trifluoroacetic acid salt] | 650 |  |
| CCOc1ccc2nn(CC(=O)c3cc(N4CCOCC4)c(OC)c(C(C)(C)C)c3)c(=N)n2n1 [Example 7, 1-(3-tert-butyl-4-methoxy-5-morpholin-4-ylphenyl)-2-(6-ethoxy-3-imino-[1,2,4]triazolo[4,3-b]pyridazin-2-yl)ethanone trifluoroacetic acid salt] | 158 |  |
| CCC(CC)Oc1cc(C)c2nn(CC(=O)c3cc(OCCOC)cc(C(C)(C)C)c3)c(=N)n2n1 [Example 66, 1-[3-tert-butyl-5-(2-methoxy-ethoxy)phenyl]-2-[6-(1-ethylpropoxy)-3-imino-8-methyl-[1,2,4]triazolo[4,3-b]pyridazin-2-yl]ethanone hydrochloride] | 25 |  |
| CCC(CC)Oc1cc(C)c2nn(CC(=O)c3cc(OCCCO)cc(C(C)(C)C)c3)c(=N)n2n1 [Example 90, 1-[3-tert-butyl-5-(3-hydroxy-propoxy)phenyl]-2-[6-(1-ethyl-propoxy)-3-imino-8-methyl-[1,2,4]triazolo[4,3-b]pyridazin-2-yl]ethanone hydrochloride] | 12 |  |
| CCC(CC)Oc1nn2c(=N)n(CC(=O)c3cc(OC)cc(S(F)(F)(F)(F)F)c3)nc2c(C)c1C [Example 85, 2-[6-(1-ethylpropoxy)-3-imino-7,8-dimethyl-[1,2,4]triazolo[4,3-b]pyridazin-2-yl]-1-[3-methoxy-5-(pentafluorosulfanyl)-phenyl]ethanone trifluoroacetic acid salt] | 59 |  |
| COCC(COC)Oc1cc(C)c2nn(CC(=O)c3cc(OCCO)cc(C(C)(C)C)c3)c(=N)n2n1 [Example 98, 1-[3-tert-butyl-5-(2-hydroxy-ethoxy)phenyl]-2-[3-imino-6-(2-methoxy-1-methoxymethyl-ethoxy)-8-methyl-[1,2,4]triazolo[4,3-b]pyridazin-2-yl]ethanone hydrochloride] | 334 |  |
| CCOc1nn2c(=N)n(CC(=O)c3cc(OCCCF)cc(C(C)(C)C)c3)nc2c(C)c1C [Example 222, 1-[3-tert-butyl-5-(3-fluoro-propoxy)phenyl]-2-(6-ethoxy-3-imino-7,8-dimethyl-[1,2,4]triazolo[4,3-b]pyridazin-2-yl)ethanone hydrochloride] |  | 416 |
| CCC(CC)Oc1cc(C)c2nn(CC(=O)c3cc(OCCO)cc(S(F)(F)(F)(F)F)c3)c(=N)n2n1 [Example 161, 2-[6-(1-ethylpropoxy)-3-imino-8-methyl-[1,2,4]triazolo[4,3-b]pyridazin-2-yl]-1-[3-(2-hydroxy-ethoxy)-5-(pentafluorosulfanyl)-phenyl]ethanone trifluoroacetic acid salt] |  | 365 |
